Data as given in PMC6372246 (ACS Omega, 2019).
Several values for one entry are separate records, joined by “and”; a condition that tells them apart may be missing. Equal entries are not always repeated.

How the values were obtained:
[1] = target: GRPR (Homo sapiens, UniProt P30550); test: Fluorometric calcium release assay; type: cell-based; details: PC-3 cells, 50 nM
[2] = target: GRPR; details: read-out: Ki (reported value); murine Swiss 3T3 cells; cited from earlier work

Chain of GRPR (Homo sapiens, UniProt P30550) (P30550 whole entry): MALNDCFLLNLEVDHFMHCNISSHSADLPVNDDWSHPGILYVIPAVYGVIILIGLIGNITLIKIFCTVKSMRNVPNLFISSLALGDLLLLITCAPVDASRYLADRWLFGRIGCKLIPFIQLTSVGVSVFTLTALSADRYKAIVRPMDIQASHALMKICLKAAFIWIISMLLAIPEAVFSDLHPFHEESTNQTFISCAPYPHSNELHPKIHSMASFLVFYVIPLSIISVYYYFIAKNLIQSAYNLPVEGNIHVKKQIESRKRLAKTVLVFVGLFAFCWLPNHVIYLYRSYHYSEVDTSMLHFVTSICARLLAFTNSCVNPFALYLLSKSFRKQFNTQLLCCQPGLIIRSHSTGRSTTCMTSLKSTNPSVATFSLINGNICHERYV

Compound | Intracellular calcium release [1] | Ki [2]
Nc1ncnc2c1ncn2[C@@H]1O[C@H](COP(=O)(O)OP(=O)(O)OP(=O)(O)O)[C@@H](O)[C@H]1O [ATP, adenosine triphosphate] | 511 ± 45.5 RFUs and > 500 RFUs | –
D-Phe-Gln-Trp-Ala-Val-Gly-His-Leu-ψ-Tac-NH2 [RC-3950-II] | – | 78 pM
